What is called viability is a per cent measure of how many cells are alive, often set against a control.

Molecules are shown by their SMILES.

In the first experiment the test system is hepatocellular carcinoma cell line Hep3B. Briefly: Growth inhibition of Hep3B cells, 48 hr treatment, Hoechst 33342 nucleus count (GE InCell 2200). Format: cell-based. As to conditions: Homo sapiens, Table 1, ratio of number of tumor cells treated with 10 μM compound to non-treated cells. The essentials:
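Compound exposure lasted 48 hr at 37° C, 5% CO2. Surviving nuclei were counted after Hoechst 33342 staining, and survival was expressed as the treated/non-treated cell number ratio, including the ratio at 10 μM compound.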
On to `Nc1nc2ccc(CC(=O)Nc3nnc(-c4ccc(Br)c([N+](=O)[O-])c4)s3)cc2s1` [Compound 1-13, 2-(2-aminobenzo[d]thiazol-6-yl)-N-(5-(4-bromo-3-nitrophenyl)-1,3,4-thiadiazol-2-yl)acetamide], for which the viability at 10 µM stood at 60%.

Still in this experiment, the particulars now being: Homo sapiens, Table 5, ratio of number of tumor cells treated with 10 μM compound to non-treated cells.
As to `CCCc1ccc(-c2nc(NC(=O)c3ccc([N+](=O)[O-])s3)sc2Oc2ccccc2F)cc1` [Compound 5-78, N-(5-(2-fluorophenoxy)-4-(4-propylphenyl)thiazol-2-yl)-5-nitrothiophene-2-carboxamide], the viability at 10 µM worked out at 33%.
Same read-out and setting: in the case of `O=C(Nc1nc(-c2cccc([N+](=O)[O-])c2)c(Oc2ccccc2)s1)c1ccc([N+](=O)[O-])s1` [Compound 5-3, 5-nitro-N-(4-(3-nitrophenyl)-5-phenoxythiazol-2-yl)thiophene-2-carboxamide] it was 82%; in that of `CCCCOc1ccc(-c2nc(NC(=O)c3ccc([N+](=O)[O-])s3)sc2Oc2ccc(CCC)cc2)cc1` [Compound 5-93, N-(4-(4-butoxyphenyl)-5-(4-propylphenoxy)thiazol-2-yl)-5-nitrothiophene-2-carboxamide], 45%; in that of `CCCOc1ccc(-c2nc(NC(=O)c3ccc([N+](=O)[O-])s3)sc2Oc2ccc(F)cc2F)cc1` [Compound 5-37, N-(5-(2,4-difluorophenoxy)-4-(4-propoxyphenyl)thiazol-2-yl)-5-nitrothiophene-2-carboxamide], 38%.
On the same count and under the same terms, the figure for `CCC(C)(C)c1ccc(-c2nc(NC(=O)c3ccc([N+](=O)[O-])s3)sc2Oc2ccccc2)cc1` [Compound 5-59, 5-nitro-N-(4-(4-(tert-pentyl)phenyl)-5-phenoxythiazol-2-yl)thiophene-2-carboxamide] is 38%; for `CCCCOc1ccc(-c2nc(NC(=O)c3ccc([N+](=O)[O-])s3)sc2Oc2ccc(F)cc2)cc1` [Compound 5-73, N-(4-(4-butoxyphenyl)-5-(4-fluorophenoxy)thiazol-2-yl)-5-nitrothiophene-2-carboxamide] it is 49%.
On to `CCCc1ccc(Oc2sc(NC(=O)c3ccc([N+](=O)[O-])s3)nc2-c2ccc(C(C)(C)C)cc2)cc1` [Compound 5-88, N-(4-(4-(tert-butyl)phenyl)-5-(4-propylphenoxy)thiazol-2-yl)-5-nitrothiophene-2-carboxamide], for which the viability at 10 µM is 36%.

The experiment is the same for the next values; noted with them: Homo sapiens, Table 6, ratio of number of tumor cells treated with 10 μM compound to non-treated cells.
Regarding `CC(C)(C)c1ccc(-c2nc(NC(=O)c3ccc([N+](=O)[O-])s3)sc2-c2cc(F)c(F)c(F)c2)cc1` [Compound 6-51, N-(4-(4-(tert-butyl)phenyl)-5-(3,4,5-trifluorophenyl)thiazol-2-yl)-5-nitrothiophene-2-carboxamide], the viability at 10 µM worked out at 50%.
For the compound `O=C(Nc1nc(-c2ccccc2[N+](=O)[O-])c(Br)s1)c1ccc([N+](=O)[O-])s1` [Compound 6-12, N-(5-bromo-4-(2-nitrophenyl)thiazol-2-yl)-5-nitrothiophene-2-carboxamide], the viability at 10 µM is 67%.
`CC(C)(C)c1ccc(-c2nc(NC(=O)c3ccc([N+](=O)[O-])s3)sc2-c2cccc(Br)c2)cc1` [Compound 6-58, N-(5-(3-bromophenyl)-4-(4-(tert-butyl)phenyl)thiazol-2-yl)-5-nitrothiophene-2-carboxamide]: the viability at 10 µM came to 32%.
Regarding `CCOc1ccc(-c2nc(NC(=O)c3ccc([N+](=O)[O-])s3)sc2Br)cc1` [Compound 6-17, N-(5-bromo-4-(4-ethoxyphenyl)thiazol-2-yl)-5-nitrothiophene-2-carboxamide], the viability at 10 µM was 53%.
In the case of `CC(C)(C)c1ccc(-c2nc(NC(=O)c3ccc([N+](=O)[O-])s3)sc2-c2ccc(F)cc2F)cc1` [Compound 6-39, N-(4-(4-(tert-butyl)phenyl)-5-(2,4-difluorophenyl)thiazol-2-yl)-5-nitrothiophene-2-carboxamide], the viability at 10 µM was 31%.
On the same count and under the same terms, in the case of `CCOc1ccc(-c2nc(NC(=O)c3ccc([N+](=O)[O-])o3)sc2Cc2ccccc2)cc1` [Compound 6-33, N-(5-benzyl-4-(4-ethoxyphenyl)thiazol-2-yl)-5-nitrofuran-2-carboxamide] it was 27%.

Values taken from patent US11174253B2, “Compound and pharmaceutical composition containing the same” (ALPHALA CO., LTD., priority 2017, dated 2021).
